Blank lines part the entries; values can stand above or below the compound they belong to.
How the values were obtained:
[1] = tested on: human breast MCF-7 cancer cell line; assay: In vitro cytotoxic screening (MTT assay), MCF-7; format: cell-based; conditions: average ± standard deviation
Procedure: (§1) Using human breast MCF-7, colorectal HCT-116, and prostate PC-3 cancer cell lines, preliminary antiproliferative effectiveness of cyclopenta[4,5]thieno[2,3-d][1,2,4]triazolo[1,5-a]pyrimidin-9(6H)-ones 4–16 was established in vitro through MTT assay at different concentrations (100, 50, 25 and 12.5 μM) (Figure 2).
(§2) The cell lines were obtained from Karolinska Center, Department of Oncology and Pathology, Karolinska Institute and Hospital, Stockholm, Sweden. as follows: human breast MCF-7, colorectal HCT-116 and prostate PC-3 cancer cell lines and human skin normal BJ-1 cell line. Exponentially, cells were cultured at a concentration of 10^4 cells/well for 24 h, afterwards fresh medium containing different concentrations of the tested samples was added. Serial two-fold dilution of the tested samples were added using a multichannel pipette. Moreover, all cells were cultivated at 37 °C, 5% CO2 and 95% humidity. Also, incubation of control cells occurred at 37 °C. However, after incubation for 24 h different concentrations of samples (100, 50, 25 and 12.5 µM) were added and the incubation was continued for 48 h, then crystal violet solution 1% was added to each well for 0.5 h to examine the presence of viable cells. After rinsing the wells using water until stain free, 30% glacial acetic acid was added to all wells with shaking the plates on a Microplate reader (TECAN, Inc.) to measure the absorbance at a wavelength of 490 nm. The cytotoxicity was estimated by IC50 in μM, which is the concentration that inhibits 50% of growth of cancer cells. […]
(§3) 1.1. In vitro cytotoxic screening
(§4) The cell lines were obtained from Karolinska Center, Department of Oncology and Pathology, Karolinska Institute and Hospital, Stockholm, Sweden. as follows: human breast MCF-7, colorectal HCT-116 and prostate PC-3 cancer cell lines and human skin normal BJ-1 cell line. Exponentially, cells were placed in 10^4 cells/ well for 24 h, and then add fresh medium which containing different concentration of the tested sample. Serial two-fold dilution of the tested sample were added using a multichannel pipette. Moreover, all cells were cultivated at 37 °C, 5% CO2 and 95% humidity. Also, incubation of control cells occurred at 37 °C. However, after incubation for 24 h different concentrations of sample (100, 50, 25 and 12.5 µM) were added and continued the incubation for 48 h, then, add the crystal violet solution 1% to each well for 0.5 h to examine viable cells. Rinse the wells using water until no stain. After that, add 30% glacial acetic acid to all wells with shaking plates on Microplate reader (TECAN, Inc.) to measure the absorbance, using a test wavelength of 490 nm. Besides, compare the treated samples with the control cell. The cytotoxicity was estimated by IC50 in (μ M), the concentration that inhibits 50% of growth of cancer cell. […]
(§5) The molecular docking simulation of the promising in vitro screened cyclopenta[4,5]thieno[2,3-d][1,2,4]triazolo[1,5-a]pyrimidin-9(6H)-ones 10b and 10e against EGFR and PI3K was done using the Molecular Operating Environment software (MOE-Dock) version 2014.0901. The co-crystallized structures of EGFR and PI3K kinases complexed with their native ligands, erlotinib and quinolone LXX, were downloaded from the protein data bank (PDB codes: 1M17 and 3L54, respectively). All minimizations were performed using MOE until an RMSD gradient of 0.05 kcal∙mol−1Å−1 with MMFF94x force field and the partial charges were automatically calculated. Preparation of the enzyme structures was done for molecular docking using Protonate 3D protocol with the default options in MOE. London dG scoring function and Triangle Matcher placement method were used in the docking protocol. Initially, the original ligands were re-docked into the active binding site of EGFR and PI3K kinases to assess the root-mean-square deviation values. Then, the docking studies of the newly targeted […]

[2] = tested on: human colorectal HCT-116 cancer cell line; assay: In vitro cytotoxic screening (MTT assay), HCT-116; format: cell-based; conditions: average ± standard deviation
Procedure: as §1, §2, §3, §4, §5

[3] = tested on: human prostate PC-3 cancer cell line; assay: In vitro cytotoxic screening (MTT assay), PC-3; format: cell-based; conditions: average ± standard deviation
Procedure: as §1, §2, §3, §4, §5

melting point: > 300 °C
SMILES: CC(=O)OC[C@@H](OC(C)=O)[C@@H](OC(C)=O)[C@H](OC(C)=O)[C@@H](OC(C)=O)c1nc2nc3sc4c(c3c(=O)n2[nH]1)CCC4 [Compound 12a, (1S,2R,3R,4R)-1-(9-oxo-1,7,8,9-tetrahydro-6H-cyclopenta[4,5]thieno[2,3-d][1,2,4]triazolo[1,5-a]pyrimidin-2-yl)pentane-1,2,3,4,5-pentayl pentaacetate]

melting point: > 300 °C
SMILES: CC(=O)OC[C@@H](OC(C)=O)[C@H](OC(C)=O)[C@H](OC(C)=O)[C@@H](OC(C)=O)c1nc2nc3sc4c(c3c(=O)n2[nH]1)CCC4 [Compound 12b, (1S,2R,3S,4R)-1-(9-oxo-1,7,8,9-tetrahydro-6H-cyclopenta[4,5]thieno[2,3-d][1,2,4]triazolo[1,5-a]pyrimidin-2-yl)pentane-1,2,3,4,5-pentayl pentaacetate]
Percentage cytotoxicity on MCF-7 ([1]; 12.5 µM): 0.0±0.005% | Percentage cytotoxicity on MCF-7 ([1]; 25 µM): 5.5±0.6% | Percentage cytotoxicity on MCF-7 ([1]; 50 µM): 20.8±2.1% | Percentage cytotoxicity on MCF-7 ([1]; 100 µM): 30.1±7.5% | Percentage cytotoxicity on HCT-116 ([2]; 12.5 µM): 0.0±0.005% | Percentage cytotoxicity on HCT-116 ([2]; 25 µM): 0.0±0.005% | Percentage cytotoxicity on HCT-116 ([2]; 50 µM): 0.0±0.005% | Percentage cytotoxicity on HCT-116 ([2]; 100 µM): 13.3±3.1% | Percentage cytotoxicity on PC-3 ([3]; 12.5 µM): 1.5±2.3% | Percentage cytotoxicity on PC-3 ([3]; 25 µM): 4.8±1.1% | Percentage cytotoxicity on PC-3 ([3]; 50 µM): 7.3±0.9% | Percentage cytotoxicity on PC-3 ([3]; 100 µM): 20.6±3.3%

melting point: > 300 °C
SMILES: CC(=O)OC[C@@H](OC(C)=O)[C@@H](OC(C)=O)[C@H](OC(C)=O)c1nc2nc3sc4c(c3c(=O)n2[nH]1)CCC4 [Compound 12d, (1R,2S,3R)-1-(9-oxo-1,7,8,9-tetrahydro-6H-cyclopenta[4,5]thieno[2,3-d][1,2,4]triazolo[1,5-a]pyrimidin-2-yl)butane-1,2,3,4-tetrayl tetraacetate]
Percentage cytotoxicity on MCF-7 ([1]; 12.5 µM): 0.0±0.005% | Percentage cytotoxicity on MCF-7 ([1]; 25 µM): 0.0±0.005% | Percentage cytotoxicity on MCF-7 ([1]; 50 µM): 0.0±0.005% | Percentage cytotoxicity on MCF-7 ([1]; 100 µM): 26.9±4.8% | Percentage cytotoxicity on HCT-116 ([2]; 12.5 µM): 0.0±0.005% | Percentage cytotoxicity on HCT-116 ([2]; 25 µM): 0.0±0.005% | Percentage cytotoxicity on HCT-116 ([2]; 50 µM): 0.0±0.005% | Percentage cytotoxicity on HCT-116 ([2]; 100 µM): 9.5±1.2% | Percentage cytotoxicity on PC-3 ([3]; 12.5 µM): 0.0±0.005% | Percentage cytotoxicity on PC-3 ([3]; 25 µM): 0.0±0.005% | Percentage cytotoxicity on PC-3 ([3]; 50 µM): 0.0±0.005% | Percentage cytotoxicity on PC-3 ([3]; 100 µM): 14.1±6.2%

More lines, now with the values behind:

SMILES: CC(=O)C/C(C)=N/n1c(N)nc2sc3c(c2c1=O)CCC3 [Compound 8, (E)-2-Amino-3-((4-oxopentan-2-ylidene)amino)-3,5,6,7-tetrahydro-4H-cyclopenta[4,5]thieno[2,3-d]pyrimidin-4-one]
Percentage cytotoxicity on MCF-7 ([1]; 12.5 µM): 30.1±4.1% | Percentage cytotoxicity on MCF-7 ([1]; 25 µM): 31.9±3.1% | Percentage cytotoxicity on MCF-7 ([1]; 50 µM): 40.9±7.8% | Percentage cytotoxicity on MCF-7 ([1]; 100 µM): 45.7±5.9% | Percentage cytotoxicity on HCT-116 ([2]; 12.5 µM): 0.0±0.005% | Percentage cytotoxicity on HCT-116 ([2]; 25 µM): 0.0±0.005% | Percentage cytotoxicity on HCT-116 ([2]; 50 µM): 0.0±0.005% | Percentage cytotoxicity on HCT-116 ([2]; 100 µM): 0.0±0.005% | Percentage cytotoxicity on PC-3 ([3]; 12.5 µM): 0.0±0.005% | Percentage cytotoxicity on PC-3 ([3]; 25 µM): 0.0±0.005% | Percentage cytotoxicity on PC-3 ([3]; 50 µM): 0.0±0.005% | Percentage cytotoxicity on PC-3 ([3]; 100 µM): 0.0±0.005% | melting point: > 300 °C

SMILES: O=c1c2c3c(sc2nc2nc([C@@H](O)[C@H](O)[C@H](O)CO)[nH]n12)CCC3 [Compound 11d, 2-((1R,2S,3R)-1,2,3,4-tetrahydroxybutyl)-1,6,7,8-tetrahydro-9H-cyclopenta[4,5]thieno[2,3-d][1,2,4]triazolo[1,5-a]pyrimidin-9-one]
Percentage cytotoxicity on MCF-7 ([1]; 12.5 µM): 0.0±0.005% | Percentage cytotoxicity on MCF-7 ([1]; 25 µM): 29.2±2.9% | Percentage cytotoxicity on MCF-7 ([1]; 50 µM): 47.9±2.2% | Percentage cytotoxicity on MCF-7 ([1]; 100 µM): 50.5±0.2% | Percentage cytotoxicity on HCT-116 ([2]; 12.5 µM): 0.0±0.005% | Percentage cytotoxicity on HCT-116 ([2]; 25 µM): 0.0±0.005% | Percentage cytotoxicity on HCT-116 ([2]; 50 µM): 0.0±0.005% | Percentage cytotoxicity on HCT-116 ([2]; 100 µM): 10.0±3.4% | Percentage cytotoxicity on PC-3 ([3]; 12.5 µM): 5.4±6.8% | Percentage cytotoxicity on PC-3 ([3]; 25 µM): 6.8±0.3% | Percentage cytotoxicity on PC-3 ([3]; 50 µM): 9.7±0.5% | Percentage cytotoxicity on PC-3 ([3]; 100 µM): 25.3±3.8% | melting point: > 300 °C

SMILES: Cc1nn2c(=O)c3c4c(sc3nc2[nH]1)CCC4 [Compound 5, 2-Methyl-7,8-dihydro-3H-cyclopenta[4,5]thieno[2,3-d][1,2,4]triazolo[1,5-a]pyrimidin-9(6H)-one]
Percentage cytotoxicity on MCF-7 ([1]; 12.5 µM): 0.0±0.005% | Percentage cytotoxicity on MCF-7 ([1]; 25 µM): 0.0±0.005% | Percentage cytotoxicity on MCF-7 ([1]; 50 µM): 0.0±0.005% | Percentage cytotoxicity on MCF-7 ([1]; 100 µM): 18.9±10% | Percentage cytotoxicity on HCT-116 ([2]; 12.5 µM): 0.0±0.005% | Percentage cytotoxicity on HCT-116 ([2]; 25 µM): 0.0±0.005% | Percentage cytotoxicity on HCT-116 ([2]; 50 µM): 0.0±0.005% | Percentage cytotoxicity on HCT-116 ([2]; 100 µM): 0.0±0.005% | Percentage cytotoxicity on PC-3 ([3]; 12.5 µM): 0.0±0.005% | Percentage cytotoxicity on PC-3 ([3]; 25 µM): 0.0±0.005% | Percentage cytotoxicity on PC-3 ([3]; 50 µM): 0.0±0.005% | Percentage cytotoxicity on PC-3 ([3]; 100 µM): 0.0±0.005% | melting point: 93 to 95 °C

SMILES: O=c1c2c3c(sc2nc2nc([C@H](O)[C@@H](O)[C@@H](O)[C@H](O)CO)[nH]n12)CCC3 [Compound 11b, 2-((1S,2R,3S,4R)-1,2,3,4,5-pentahydroxypentyl)-1,6,7,8-tetrahydro-9H-cyclopenta[4,5]thieno[2,3-d][1,2,4]triazolo[1,5-a]pyrimidin-9-one]
Percentage cytotoxicity on MCF-7 ([1]; 12.5 µM): 0.0±0.005% | Percentage cytotoxicity on MCF-7 ([1]; 25 µM): 0.0±0.005% | Percentage cytotoxicity on MCF-7 ([1]; 50 µM): 22.1±6.9% | Percentage cytotoxicity on MCF-7 ([1]; 100 µM): 39.4±8.3% | Percentage cytotoxicity on HCT-116 ([2]; 12.5 µM): 18.2±2.3% | Percentage cytotoxicity on HCT-116 ([2]; 25 µM): 16.1±1.6% | Percentage cytotoxicity on HCT-116 ([2]; 50 µM): 21.8±1.9% | Percentage cytotoxicity on HCT-116 ([2]; 100 µM): 18.7±7.6% | Percentage cytotoxicity on PC-3 ([3]; 12.5 µM): 0.0±0.005% | Percentage cytotoxicity on PC-3 ([3]; 25 µM): 0.0±0.005% | Percentage cytotoxicity on PC-3 ([3]; 50 µM): 0.0±0.005% | Percentage cytotoxicity on PC-3 ([3]; 100 µM): 12.7±3.8% | melting point: > 300 °C

SMILES: N#CCc1nn2c(=O)c3c4c(sc3nc2[nH]1)CCC4 [Compound 7, 2-(9-Oxo-6,7,8,9-tetrahydro-3H-cyclopenta[4,5]thieno[2,3-d][1,2,4]triazolo[1,5-a]pyrimidin-2-yl)acetonitrile]
melting point: > 300 °C
